“Also recorded” adds a separate entry of the source. Non-standard residues stand in square brackets, D forms with d. Residues, ends and D or L forms follow the SMILES beside them. No end group written: not given here.

Here are results for 3 molecules from patent US20250171762A1, “THERAPEUTICAL PEPTIDOMIMETIC” (UNIVERSITA' DEGLI STUDI DI ROMA "LA SAPIENZA", priority 2021, published 2025).

Data set [1] has as its system cybrids bearing the m·3243A>G mutation in mt-tRNA^Leu(UUR). The data set can be described thus: Fluorescence confocal microscopy of Cy5-linked constructs, uptake and mitochondrial co-localization. It is filed as cell-based, human. The settings on record: 0.25 μM, 24 hours, Mitotracker Red. The text has this: Top row (constructs): exogenously administered constructs covalently linked to a fluorescent dye (Cy5) are localized within cells.
Middle row (Mitotracker red): mitochondria within the same cells shown in the top row are highlighted by Mitotracker red, a dye able to link specifically and exclusively to mitochondria.
The cells used for the experiments are trans-mitochondrial hybrids (hereafter named cybrids) bearing the m·3243A>G mutation in mt-tRNA^Leu(UUR), which is associated with the MELAS syndrome.
Cells were incubated for 24 hours with 0.25 μM of constructs. Half an hour before imaging, cells were stained with Mitotracker Red. Finally, fluorescence signals were detected with a laser scanning confocal microscope. PCC: Pearson's Correlation Coefficient (mean±SEM of six images).
Constructs made of compounds listed in Table 1 linked to the Cy5 fluorophore via maleimide cross-linker, were administered to sub-confluent cybrid cell cultures at 0.25 μM in glucose medium. […] The fluorescence images were analyzed with the ImageJ software (14, https://imagej.nih.gov/ij/, 1997-2018) to determine the Pearson's correlation coefficient.
The uptake and localization of Cy5-conjugated constructs in cybrids was assessed by flow cytometry, confocal microscopy, and immunoblot analysis on isolated mitochondria (FIG. 1). […]

The subject of data set [2] is m·3243A>G mt-tRNA^Leu(UUR) mutant cybrids. The data set can be described thus: Cell viability, Trypan blue dye exclusion, galactose vs glucose medium. It is filed as cell-based, human. The following applies: 5 μM, galactose medium, 24 hours. The method, then: For viability assessment, cells were plated in either glucose or galactose medium. The reason for this is that a viability phenotype can be appreciated in cells growing on galactose, which forces cells to rely on mitochondrial respiration, but not in cells growing on glucose. After 24 hours incubation, the number of viable cells in the galactose medium was normalized to the number of viable cells in glucose at the same time point, which represents the normal growth condition. Data are compared with the value of mutant cells incubated with vehicle only. Mean±SEM of at least three independent experiments is shown.
For viability assessment, cells were plated in either glucose or galactose medium. The reason for this is that a viability phenotype can be appreciated in cells growing on galactose, which forces cells to rely on mitochondrial respiration, but not in cells growing on glucose. After 24 hours incubation the number of viable cells in galactose medium was normalized to the number of viable cells in glucose (that represents the normal growth condition) at the same time point. Data are compared with the value of mutant cells incubated with vehicle only. Means±SEM of at least two independent experiments are shown.
Previously established osteosarcoma derived (143B.TK-) cybrid cell lines from patients, which bear either the m·3243A>G mutation in mt-tRNA^Leu(UUR) or the m·8344A>G mutation in mt-tRNA^Lys, and controls were used (generous gift from Dr Valeria Tiranti and Dr Valerio Carelli).
Cybrid cells were cultured in Dulbecco's modified Eagle's medium (DMEM), supplemented with 4.5 g/l d-glucose, 10% foetal bovine serum (FBS), 2 mM I-glutamine, 50 μg/ML uridine, 100 U/mL penicillin, and […] (referred to as glucose medium) in a humidified atmosphere of 95% air and 5% CO2 at 37° C. For cell viability experiments, cells were grown either in glucose medium or in glucose-free DMEM, supplemented with 5 mM galactose, […] sodium pyruvate, and 10% FBS (referred to as galactose medium). The reason for using the latter medium is that a pathological phenotype can be appreciated in cells growing on galactose, which forces cells to rely on mitochondrial respiration, but not in cells growing on glucose.
[…] Cells were switched in glucose or galactose and after 24 hours cell viability was measured by the Trypan blue dye exclusion assay. Cells were harvested with 0.25% trypsin and 0.2% EDTA, washed, suspended in PBS in the presence of Trypan blue solution (Sigma-Aldrich) at 1:1 ratio and counted using a hemocytometer. The number of viable cells in galactose medium was expressed as a percentage of the number of cells in glucose medium.
To evaluate the effect of the compounds on viability, cybrids were grown in glucose-free medium supplemented with galactose (galactose medium), a condition that both forces cells to rely on the mt respiratory chain for ATP synthesis and causes a significant growth reduction in the presence of mutations.
To evaluate the effect of PMT and M-PMT on viability, cybrids were grown in glucose-free medium supplemented with galactose (galactose medium), a condition that both forces cells to rely on the mt respiratory chain for ATP synthesis and causes a significant growth reduction in the presence of mutations.

A short description of data set [3]: Plasma stability: incubation in human plasma, UPLC-MS quantification. It is filed as in vitro ADME. The settings on record: for plasma stability compared with another peptide: human plasma, FIG. 4; for degradation in human plasma: no time stated. The method, then: Panel B. Time course decay of β32_33, PMT, PMT-8a and PMT-8b incubated up to 72 h with human plasma from four healthy subjects. […] The Y axis indicates the signal intensity of the four peptides. Samples of plasma were obtained from healthy volunteers and immediately used for the analysis. Either β32_33 peptide or PMT for the experiment in panel A, and β32_33 peptide, PMT, PMT-8a or PMT-8b for the experiment in panel B, was incubated in plasma at a final concentration of 0.2 mM, at 37° C., up to 3 h (A) or 72 h (B). At the indicated time points, i.e., T0 and 3 h (A) or T0, 1.5, 3, 6 and 72 h (B), aliquots of 200 μL were treated with 3 volumes of acetonitrile containing 1% formic acid and extracted by a solid phase extraction system to remove proteins and phospholipids. Samples were dried under vacuum, resuspended in 100 μL of 0.1% formic acid containing 5% acetonitrile, and analyzed with a Water Acquity H-Class UPLC system equipped with a single-quadruple mass detector with electrospray ionization source. Samples were separated onto a reverse phase C18 column by performing a gradient with two mobile phases consisting of 0.1% formic acid in water and 0.1% formic acid in acetonitrile at a flow rate of 0.5 mL/min. Quantification was performed by Selected lon Recording (SIR): at m/z=917.88, corresponding to the [M+2 H]^2+ion obtained from either β32_33 or PMT; at m/z=961.42, corresponding to the [M+H]^+ion obtained from PMT-8a; and at m/z=869.48, corresponding to the [M+H]^+ion obtained from PMT-8b.
In order to evaluate whether compounds (βp and d-βp) are stable in blood or hydrolyzed by plasma peptidases, we set up a chromatographic assay to evaluate compound concentration after incubation in human plasma.
Blood was drawn by venipuncture in vacutainer containing EDTA as an anticoagulant.
Two different samples from healthy volunteers were used. Plasma was separated by centrifugation and immediately used for the experiments. Each compound was dissolved in 500 uL plasma at a final concentration of 0.2 mM, and split into two aliquots, one of which was immediately analyzed to assess the basal compound level; the other was incubated at 37° C. for 3 hours under gentle shaking. In order to perform chromatographic analysis the samples were treated with 3 volumes of acetonitrile containing 1% formic acid, and then extracted by using the Ostro™ pass-through sample preparation system to remove proteins and phospholipids. Samples were dried under vacuum and then resuspended in 100 uL of 0.1% formic acid containing 5% acetonitrile, then directly injected onto the chromatographic column.
Chromatographic analyses were performed on a Water Acquity H-Class UPLC system (Waters, Milford, MA, USA), including a quaternary solvent manager (QSM), a sample manager with a flow through needle system (FTN), a photodiode array detector (PDA) and a single-quadruple mass detector with electrospray ionization source (ACQUITY QDa). Analyses were performed on a reverse phase C18 column (75 mm×3.2 mm i.d., 2.5 μm particle size). The mobile phase was solvent A, 0.1% formic acid in water, and solvent B, 0.1% formic acid in acetonitrile. The flow rate was 0.5 mL/min, the column temperature was set at 25° C. and the elution was performed by linearly increasing the concentration of solvent B up to 70% in 7 minutes. Mass spectrometric detection was performed in the positive electrospray ionization mode, using nitrogen as the nebulizer gas. Analyses were performed in the Total lon Current (TIC) mode with a mass range of 100-1200 m/z. The capillary voltage was 0.8 kV, cone voltage 8 V, ion source temperature 120° C. and probe temperature 600° C. Quantification of each compound was performed by Selected lon Recording (SIR) at m/z 917.88, corresponding to the […]

The test system of data set [4] is m·3243A>G mutant cybrids, m·8344A>G mutant cybrids and healthy control cells. Put plainly: Mitochondrial ToxGlo Assay (cyto- and mitotoxicity). Here is the method:
Images show the effect of increasing PMT concentrations on healthy and mutant cells, compared with the effect of a cytotoxic (C1) and a mitotoxic (C2) agent, evaluated using the Mitochondrial ToxGlo™ Assay.
The X and Y axis show the compounds incubated with cells and the ratio between fluorescent and luminescent signal, respectively. In this assay, fluorescence increase indicates a decrease in cell membrane integrity, and luminescence decrease indicates a decrease in cellular ATP levels. […] The horizontal black line represents fluorescence/luminescence signal ratio of untreated cells. WT: wild type; 3243: cells bearing the mutation m·3243A>G in mt-tRNA^Leu(UUR); L-8344 and H-8344: cells bearing low and high load of mutation m·8344A>G in mt-tRNA^Lys.
Cybrids were plated on a 96-well plate in normal growth conditions (i.e., glucose medium) and treated with different PMT concentrations. […] Fluorescence and luminescence were measured with a GloMax Multi+Luminometer. […]
Mitochondrial toxicity exerted by PMT was measured using the Mitochondrial ToxGlo™ Assay (Promega Italia Srl., Milano, Italy) according to the manufacturer's protocol. […] Subsequently, cells were incubated with specific reagents and fluorescence or luminescence were measured with a GloMax Multi+Luminometer (Promega Italia Srl., Milano, Italy).

With `CC[C@@H](C)[C@@H](NC(=O)[C@@H](CC(C)C)NC(=O)[C@@H](C)NC(=O)[C@H](NC(=O)[C@@H](CCCNC(=N)N)NC(=O)[C@H]1CCCN1C(=O)[C@@H](CO)NC(=O)[C@H](N)CC(C)C)[C@H](C)O)C(=O)O` [PMT-8b, d(L)d(S)d(P)d(R)d(T)d(A)d(L)d(I)] (H-[dL][dS][dP][dR][dT][dA][dL][dI]-OH; N-terminus and C-terminus assumed), in data set [1], the “penetration of cell membranes and co-localization with mitochondria” value is “Penetrate Cell Membranes and Co-Localize with Mitochondria”. In addition, the “viability of mutant cybrids vs non treated mutant cells” value in data set [2] is reported as “significantly improved”. In data set [3], the “plasma stability compared with another peptide” value is given as “even more stable than the full-length 16-residue long PMT; also recorded: slower degradation than the β32_33 peptide” and the “degradation in human plasma” value is listed as “does not undergo degradation at all”. In addition, the remaining at 72 h, 0.2 mM in data set [3] (human, human plasma from healthy volunteers, second experiment, plasma of four healthy volunteers, 72 h, read-out: peptide present after incubation in plasma) is 80%.
Consider `[N-]=[N+]=[N-]` [sodium azide, reference compound], for which the “effect on fluorescence and luminescence (positive controls)” value in data set [4] (400 μg/ml digitonin (C1) or 100 μl sodium azide (C2), three hours) was “a decrease in luminescence and has no effect on fluorescence”.
“d(K)d(K)d(S)d(F)d(L)d(S)d(P)d(R) ([dK][dK][dS][dF][dL][dS][dP][dR]) [PMT-8a]”: in data set [1], the “penetration of cell membranes and co-localization with mitochondria” value was “Penetrate Cell Membranes and Co-Localize with Mitochondria”. For the same molecule, in data set [3], the “plasma stability compared with another peptide” value is “even more stable than the full-length 16-residue long PMT; also recorded: slower degradation than the β32_33 peptide” and the “degradation in human plasma” value is on record as “does not undergo degradation at all”. Further, in data set [3] (second experiment, plasma of four healthy volunteers, up to 72 h), the “detectable degradation in plasma” value is listed as “did not undergo detectable degradation”. Further, the cyto- and mito-toxicity entry in data set [4] (5, 10, 20 μM (up to 20 μM), mutant and wild-type cells) is recorded as “neither cytotoxic nor mitotoxic”.
